The structures appear in SMILES notation. pIC50: −log10 of the molar value. Like-named read-outs stand apart in the source and are kept apart here.

This is an account of results in patent US20230373989A1, “N-PHENYLAMINOCARBONYL PYRIDINO-, PYRIMIDINO AND BENZO-TROPANES AS MODULATORS OF GPR65” (PATHIOS THERAPEUTICS LIMITED, priority 2020, published 2023).

In this assay the target is T1, human recombinant GPR65 (Homo sapiens, UniProt Q8IYL9).
T1 construct: host or cells: 1321N1 human astrocytoma cells (1321N1-hrGPR65)
T1 sequence (Q8IYL9 whole entry): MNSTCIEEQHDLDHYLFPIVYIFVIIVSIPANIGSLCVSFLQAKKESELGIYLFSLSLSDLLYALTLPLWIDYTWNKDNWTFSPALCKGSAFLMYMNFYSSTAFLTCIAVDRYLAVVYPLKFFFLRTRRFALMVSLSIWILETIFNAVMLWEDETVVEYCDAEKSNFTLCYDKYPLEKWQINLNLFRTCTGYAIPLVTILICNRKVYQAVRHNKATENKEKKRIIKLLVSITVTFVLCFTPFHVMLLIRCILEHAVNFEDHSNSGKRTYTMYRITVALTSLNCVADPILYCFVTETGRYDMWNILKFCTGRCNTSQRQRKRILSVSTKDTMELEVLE
The assay can be described thus: Human GPR65 cAMP HTRF antagonist assay. It counts as cell-based. The source says: In one preferred embodiment, the compound prevents the increase in cytoplasmic cAMP levels expected following GPR65 activation at acidic pH. This prevention of cAMP accumulation in turn prevents downstream signalling through ICER, as described above. The “Human GPR65 cyclic adenosine monophosphate (cAMP) Homogeneous Time Resolved Fluorescence (HTRF) antagonist assay”, or simply “cAMP assay”, as described in the accompanying examples, can be used to measure the potency of GPR65 modulators, which is expressed as the concentration of compound required to reduce the increase in cAMP concentration upon GPR65 activation by 50% (i.e. an IC50).
Human GPR65 Cyclic Adenosine Monophosphate (cAMP) Homogeneous Time Resolved Fluorescence (HTRF) Antagonist Assay Procedure
IC50 data was obtained by the following procedure:
1321N1 human astrocytoma cells stably expressing human recombinant GPR65 (1321N1-hrGPR65 cells, EuroscreenFast) were cultured according to the vendor's instructions.
Compounds were tested for their ability to antagonise GPR65, through measuring the concentration of cytoplasmic cAMP following treatment of the cells at a pH of 7.2 to activate GPR65 signalling and addition of the compound to be tested. The extent to which the expected rise in cAMP concentration upon GPR65 activation was suppressed by the added compound is indicative of its potency. The assay was carried out according to EuroscreenFast assay methodology as follows.
On the day of the assay, test compounds were added to 384-well, low volume, white microtiter plates by acoustic dispensing. KRH buffer (5 mM KCl, 1.25 mM MgSO4, 124 mM NaCl, 25 mM HEPES, 13.3 mM Glucose, 1.25 mM KH2PO4 and 1.45 mM CaCl2) was adjusted to pH 6.5, pH 7.6 and pH 8.4 by adding NaOH. 1321N1-hGPR65 cells were rapidly thawed and diluted in KRH, pH 7.6 prior to centrifugation at 300×g for 5 min and resuspension in assay buffer (KRH, pH 7.6, supplemented with 1 mM 3-isobutyl-1-methylxanthine (IBMX) and 200 μM ethylenediaminetetraacetic acid (EDTA)). Cells were added to assay plates at a density of 2,000 cells per well in a volume of 5 μl. Assay plates were briefly centrifuged at 100×g and then incubated at room temperature for 30 min. Cells were stimulated by the addition of 5 μL KRH, pH 6.5, to achieve an assay pH of 7.2, while control wells received 5 μl KRH, pH 8.4 to achieve an assay pH of 7.9. Assay plates were briefly centrifuged at 100×g and then incubated at room temperature for 30 min.
Accumulation of cAMP was detected by cAMP HTRF kit (Cisbio). d2-labeled cAMP and cryptate-labeled anti-cAMP antibody in Lysis and Detection Buffer (Cisbio) were added to assay plates, and the plates were incubated at room temperature for 1 h. HTRF measurements were performed using a Pherastar FSX instrument. Acceptor and donor emission signals were measured at 665 nm and 620 nm, respectively, and HTRF ratios were calculated as signal665 nm/signal620 nm×104. Data were normalised to high and low control values and fitted with 4-parameter logistic regression to determine hGPR65 IC50 values for the test compounds, which are shown in Table 1.
On the technique in general: Time-resolved FRET reads energy transfer from a long-lived donor to a nearby acceptor.

[1] abbreviates: 1321N1-hrGPR65 cells, assay pH 7.2, cAMP HTRF, read-out: hGPR65 IC50 (activity class).

As a reminder, the pIC50 is −log10 of the IC50, conventionally taken in molar units. For `O=C(Nc1ccc(C(F)(F)F)cc1)N1C2CCC1c1cncnc1C2` (racemic) [Compound 1, (±)-N-(4-(Trifluoromethyl)phenyl)-6,7,8,9-tetrahydro-5H-5,8-epiminocyclohepta[d]pyrimidine-10-carboxamide], the pIC50 under setting [1] was 5.30 to 6.30. With `O=C(Nc1ccc(C(F)(F)F)c(Cl)c1)N1C2CCC1c1cncnc1C2` (racemic) [Compound 2, (±)-N-(3-Chloro-4-(trifluoromethyl)phenyl)-6,7,8,9-tetrahydro-5H-5,8-epiminocyclohepta[d]pyrimidine-10-carboxamide], the pIC50 is over 6.30. As for `O=C(Nc1ccc(Cl)c(C(F)(F)F)c1)N1C2CCC1c1cncnc1C2` (racemic) [Compound 3, (±)-N-(4-Chloro-3-(trifluoromethyl)phenyl)-6,7,8,9-tetrahydro-5H-5,8-epiminocyclohepta[d]pyrimidine-10-carboxamide], the pIC50 under setting [1] is 5.30 to 6.30. Still for that read-out and setting: the result for `O=C(Nc1cc(Cl)cc(Cl)c1)N1C2CCC1c1cncnc1C2` (racemic) [Compound 4, (±)-N-(3,5-Dichlorophenyl)-6,7,8,9-tetrahydro-5H-5,8-epiminocyclohepta[d]pyrimidine-10-carboxamide] reads 5.30 to 6.30.

Take `O=C(Nc1ccc(F)c(C(F)(F)F)c1)N1C2CCC1c1cncnc1C2` (racemic) [Compound 5, (±)-N-(4-Fluoro-3-(trifluoromethyl)phenyl)-6,7,8,9-tetrahydro-5H-5,8-epiminocyclohepta[d]pyrimidine-10-carboxamide]: the pIC50 under setting [1] is under 5.30. Still for that read-out and setting: the result for `O=C(Nc1ccc(F)c(F)c1)N1C2CCC1c1cncnc1C2` (racemic) [Compound 6, (±)-N-(3,4-Difluorophenyl)-6,7,8,9-tetrahydro-5H-5,8-epiminocyclohepta[d]pyrimidine-10-carboxamide] reads under 5.30. Regarding `O=C(Nc1ccc(Br)c(Cl)c1)N1C2CCC1c1cncnc1C2` (racemic) [Compound 7, (±)-N-(4-Bromo-3-chlorophenyl)-6,7,8,9-tetrahydro-5H-5,8-epiminocyclohepta[d]pyrimidine-10-carboxamide], the pIC50 is over 6.30. `COc1ccc(NC(=O)N2C3CCC2c2cncnc2C3)cc1Cl` (racemic) [Compound 8, (±)-N-(3-Chloro-4-methoxyphenyl)-6,7,8,9-tetrahydro-5H-5,8-epiminocyclohepta[d]pyrimidine-10-carboxamide]: under setting [1], the pIC50 is under 5.30. Still for that read-out and setting: the result for `N#Cc1ccc(NC(=O)N2C3CCC2c2cncnc2C3)cc1Cl` (racemic) [Compound 11, (±)-N-(3-chloro-4-cyanophenyl)-6,7,8,9-tetrahydro-5H-5,8-epiminocyclohepta[d]pyrimidine-10-carboxamide] reads 5.30 to 6.30. Still for that read-out and setting: the result for `O=C(Nc1ccc(Cl)c(Br)c1)N1C2CCC1c1cncnc1C2` (racemic) [Compound 12, (±)-N-(3-Bromo-4-chlorophenyl)-6,7,8,9-tetrahydro-5H-5,8-epiminocyclohepta[d]pyrimidine-10-carboxamide] reads 5.30 to 6.30. Turning to `N#Cc1ccc(NC(=O)N2C3CCC2c2cncnc2C3)cc1Br` (racemic) [Compound 13, (±)-N-(3-Bromo-4-cyanophenyl)-6,7,8,9-tetrahydro-5H-5,8-epiminocyclohepta[d]pyrimidine-10-carboxamide], the pIC50 under setting [1] is under 5.30. With `O=C(Nc1ccc(C(F)(F)F)c(Br)c1)N1C2CCC1c1cncnc1C2` (racemic) [Compound 15, (±)-N-(3-Bromo-4-(trifluoromethyl)phenyl)-6,7,8,9-tetrahydro-5H-5,8-epiminocyclohepta[d]pyrimidine-10-carboxamide], the negative logarithm of the IC50 (pIC50) is over 6.30. The same measure, in the same setting: the result for `O=C(Nc1ccc(Br)c(Br)c1)N1C2CCC1c1cncnc1C2` (racemic) [Compound 16, (±)-N-(3,4-Dibromophenyl)-6.7,8,9-tetrahydro-5H-5,8-epiminocyclohepta[d]pyrimidine-10-carboxamide] reads over 6.30. Same read-out and setting: the result for `O=C(Nc1ccc(Cl)c(Cl)c1)N1C2CCC1c1ncncc1C2` (racemic) [Compound 17, (±)-N-(3,4-Dichlorophenyl)-6,7,8,9-tetrahydro-5H-6,9-epiminocyclohepta[d]pyrimidine-10-carboxamide] reads over 6.30; that for `O=C(Nc1ccc(C(F)(F)F)c(Cl)c1)N1C2CCC1c1ncncc1C2` (racemic) [Compound 18, (±)-N-(3-Chloro-4-(trifluoromethyl)phenyl)-6,7,8,9-tetrahydro-5H-6,9-epiminocyclohepta[d]pyrimidine-10-carboxamide], over 6.30. With `O=C(Nc1ccc(Cl)c(Cl)c1)N1C2CCC1c1cnc(C(F)(F)F)nc1C2` (racemic) [Compound 24, (±)-N-(3,4-Dichlorophenyl)-2-(trifluoromethyl)-6,7,8,9-tetrahydro-5H-5,8-epiminocyclohepta[d]pyrimidine-10-carboxamide], under setting [1], the pIC50 is under 5.30.

With `Cc1ncc2c(n1)CC1CCC2N1C(=O)Nc1ccc(Cl)c(Cl)c1` (racemic) [Compound 25, (±)-N-(3,4-Dichlorophenyl)-2-methyl-6,7,8,9-tetrahydro-5H-5,8-epiminocyclohepta[d]pyrimidine-10-carboxamide], under setting [1], the pIC50 was under 5.30.

For the compound `O=C(Nc1ccc(Cl)c(Cl)c1)N1C2CCC1c1cnc(-c3ccccc3)nc1C2` (racemic) [Compound 26, (±)-N-(3,4-Dichlorophenyl)-2-phenyl-6,7,8,9-tetrahydro-5H-5,8-epiminocyclohepta[d]pyrimidine-10-carboxamide], under setting [1], the pIC50 was 5.30 to 6.30. Same read-out and setting: the result for `O=C(Nc1ccc(C(F)(F)F)c(Cl)c1)N1C2CCC1c1cnc(C(F)(F)F)nc1C2` (racemic) [Compound 27, (±)-N-(3-Chloro-4-(trifluoromethyl)phenyl)-2-(trifluoromethyl)-6,7,8,9-tetrahydro-5H-5,8-epiminocyclohepta[d]pyrimidine-10-carboxamide] reads under 5.30; that for `O=C(Nc1ccc(Cl)c(C(F)(F)F)c1)N1C2CCC1c1cnc(-c3ccccc3)nc1C2` (racemic) [Compound 28, (±)-N-(4-Chloro-3-(trifluoromethyl)phenyl)-2-phenyl-6,7,8,9-tetrahydro-5H-5,8-epiminocyclohepta[d]pyrimidine-10-carboxamide], under 5.30. Same read-out and setting: the result for `O=C(Nc1ccc(C(F)(F)F)c(Cl)c1)N1C2CCC1c1cnc(-c3ccccc3)nc1C2` (racemic) [Compound 29, (±)-N-(3-Chloro-4-(trifluoromethyl)phenyl)-2-phenyl-6,7,8,9-tetrahydro-5H-5,8-epiminocyclohepta[d]pyrimidine-10-carboxamide] reads 5.30 to 6.30. Take `O=C(Nc1ccc(Cl)c(Cl)c1)N1C2CCC1c1cnc(=O)[nH]c1C2` (racemic) [Compound 31, (±)-N-(3,4-Dichlorophenyl)-2-oxo-2,5,6,7,8,9-hexahydro-1H-5,8-epiminocyclohepta[d]pyrimidine-10-carboxamide]: the pIC50 is over 6.30. Still for that read-out and setting: the result for `O=C(Nc1ccc(C(F)(F)F)c(Cl)c1)N1C2CCC1c1cnc(=O)[nH]c1C2` (racemic) [Compound 32, (±)-N-(3-Chloro-4-(trifluoromethyl)phenyl)-2-oxo-2,5,6,7,8,9-hexahydro-1H-5,8-epiminocyclohepta[d]pyrimidine-10-carboxamide] reads over 6.30.

In the case of `O=C(Nc1ccc(Cl)c(Cl)c1)N1C2CCC1c1ccccc1C2` (racemic) [Compound 34, (±)-N-(3,4-Dichlorophenyl)-6,7,8,9-tetrahydro-5H-5,8-epiminobenzo[7]annulene-10-carboxamide], under setting [1], the pIC50 was 5.30 to 6.30. For `O=C(Nc1ccc(C(F)(F)F)c(Cl)c1)N1C2CCC1c1ccncc1C2` (racemic) [Compound 35, (±)-N-(3-Chloro-4-(trifluoromethyl)phenyl)-6,7,8,9-tetrahydro-5H-5,8-epiminocyclohepta[c]pyridine-10-carboxamide], the pIC50 was over 6.30. On to `O=C(Nc1ccc(Cl)c(Cl)c1)N1C2CCC1c1ccncc1C2` (racemic) [Compound 36, (±)-N-(3,4-Dichlorophenyl)-6,7,8,9-tetrahydro-5H-5,8-epiminocyclohepta[c]pyridine-10-carboxamide], for which the pIC50 was over 6.30.
